This is an account of results in patent US20110190492A1, “DIAGNOSTIC PROBE FOR CONFORMATION DISEASE” (TOHOKU UNIVERSITY, priority 2005, published 2011).

In series [1] the target is T1, Tg mouse intracerebral amyloid plaque (amyloid β protein) (Homo sapiens, UniProt P05067).
T1 construct: a Tg mouse (Tg2576) with amyloid β protein deposition; from tissue
As to the kind of experiment: Tg mice with amyloid β deposition: intravenous administration, ex-vivo fluorescence microscopy of brain sections. It is filed as in vivo, Tg mouse (Tg2576 or APPswe2576/Tau JPL3).

The next series concerns the target T2, amyloid β protein (Homo sapiens, UniProt P05067).
T2 construct: from tissue; host or cells: paraffin-embedded human brain sections (temporal lobe, hippocampus) of Alzheimer disease patients
As to the kind of experiment: Staining test on a brain section of an Alzheimer disease patient (amyloid β protein). It is filed as binding, human (Alzheimer disease patient). Particulars: 100 μM compound in 50% ethanol, 10 minutes, fluorescence microscopy. From the text: (1) Brain specimens at the temporal lobe and the hippocampus of patients to which a definitive diagnosis of Alzheimer disease had been given, and those of normal senile persons were used. The specimens were given by our coworker, Fukushimura Hospital, Longevity Medicine Institute, and we were given their consent of use of the specimens for our study purpose by the bereaved of the patients (Fukushimura Hospital Ethical Review Board Approval No. 20).
(2) The paraffin-embedded brain tissue was cut into slices having a thickness of 6 μm or 8 μm, and extended and dried on a slide. The paraffin brain section was processed for paraffin removal in xylene twice for 10 minutes, 100% ethanol twice for 5 minutes, 90% ethanol for 5 minutes and running water for 10 minutes in that order.
(3) For pretreatment prior to the staining treatment with a compound of the invention, the sections were processed for autofluorescence removal with lipofuscin. First, the paraffin-removed sections were dipped in 0.25% KMnO4 solution for 20 minutes. These were washed with PBS, twice for 2 minutes, then dipped in 0.1% K2S2O5/oxalic acid solution for about 5 seconds, and then further washed with PBS, three times for 2 minutes.
(4) About 150 μl of a 100 μM solution of a compound of the invention dissolved in 50% ethanol was dropwise applied to the section and reacted for 10 minutes. After dipped five times in tap water, the section was entrapped with Fluor Save Reagent (Calbiochem), and analyzed through microscopy with a fluorescence microscope (Nikon, Eclipse 80i). The images were taken with a digital camera (Nikon Dxm 1200F or Photometrics' Cool SNAP ES).

The subject of series [2] is histidine-requiring Salmonella typhimurium TA100 and TA98 strains. Kind of series: Mutagenicity test (reverse mutation test). The class given is cell-based. Particulars: for relative activity: irrespective of the absence or presence of S9mix. The procedure:
In view of their use, it is desirable that the compounds of the invention have no mutagenicity or have little mutagenicity to a level causing no problem. For investigating the gene mutagenesis of the compounds of the invention, herein carried out was a reverse mutation test with histidine-requiring Salmonella typhimurium TA100 and TA98 strains. Two tests were carried out. One is a test for dose determination test; and the other is for mutagenicity.
The test methods and the mutagenicity of the compounds of the invention are mentioned below. In the dose determination test, six doses of 0.160, 0.800, 4.00, 20.0, 100 and 500 μg/plate (common ratio 5) were tried.
As a result of the dose determination test, when the mutagenicity of the test compound was admitted, then the actual test for mutagenicity was carried out, using the dose capable of giving an accurate dose-reaction curve. When no mutagenicity of the test compound was admitted in the dose determination test and when the growth inhibition of the test cells was admitted therein, then the dose to present the growth inhibition was taken as the maximum dose; and when the growth inhibition was not admitted, then a dose of 5000 μg/plate was taken as the maximum dose. With that, the actual test for mutagenicity was carried out on the level of 6 doses (common ratio 2).
First, a test compound was dissolved or suspended in DMSO, then diluted in order to prepare test compound liquids having a varying concentration.
100 μl of a test compound liquid or a negative control (DMSO) solution was put into a sterilized test tube. Then, for the case in the absence of a metabolic activation system (−S9mix), 500 μl of 0.1 mol/liter sodium-phosphate buffer (pH 7.4) was added to it; and for the case in the presence of a metabolic activation system (+S9mix), 500 μl of S9mix was added to it.
Next, 100 μl of the test strain suspension that had been cultivated with shaking at 37° C. for 8 hours was added to it, and preincubated in a shaking thermostat at 37° C. for 20 minutes. After shaken, 2 ml of top agar was added to it, and the contents were mixed.
Next, the mixture was poured onto a minimal glucose agar plate medium (plate) and spread uniformly thereon, then the top agar was solidified, and the plate was transferred into a thermostat and incubated at 37° C. for 48 hours.
Then, the number of the colonies grown through reverse mutation was counted.
For counting it, […]. After area correction and miss-counting correction, the number of the colonies was computed. When the colony analyzer could not be used owing to the deposition of the test compound or the cell growth inhibition, then the number of the colonies was counted with the naked eye.
In case where the number of the colonies through reverse mutation increased two times or more that of the negative control and where the dose dependency or the reproducibility of the increase was admitted, then the tested sample was decided as positive. When the sample was decided as positive, then the relative activity that indicates the relative comparative value of the intensity of the mutagenicity of the test compound was obtained according to the following formula:
Relative Activity={(number of colonies per plate having the concentration)−(number of colonies per negative control plate)}/the value of concentration (mg/plate).

Series [3] can be described thus: Acute toxicity test, intravenous administration to mice. The class given is in vivo. To be noted: mice observed for 7 days. The procedure: The compounds of the invention were tested for their acute toxicity through intravenous administration thereof to mice. Four Crj:CD1 male mice formed one test group, and some test groups of those mice were used (the mean body weight of the mice of each group was from 31 to 32 g). A test compound was dissolved in a mixture of 1 N HCl, polyethylene glycol-400 and distilled water, or dissolved in DMSO, and then diluted with distilled water. This was administered to each mouse via its tail vein.

For series [4], the system named is histidine-requiring Salmonella typhimurium TA100 and TA98 strains. Particulars: in the presence of S9mix; literature comparison compounds; cited from earlier work.

Where two headings read alike, the source gives them in different places.

T1 sequence (P05067 672-713 limits assumed): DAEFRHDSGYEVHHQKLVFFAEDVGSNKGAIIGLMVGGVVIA
T2 sequence (P05067 672-713 limits assumed): as above

`Cc1cc2nc(/C=C/c3ccc(N4CCOCC4)s3)sc2cc1C` [THK-097, 5,6-dimethyl-2-[2-(5-morpholin-4-yl-thiophen-2-yl)vinyl]-benzothiazole]: the “passage through the blood-brain barrier and binding to Tg mouse intracerebral amyloid plaque” value in series [1] (intravenous administration via tail vein, brain fixed after 1 hour, fluorescence microscopy (THK-097 0.2 mg/kg; THK-525, THK-727, THK-702 4 mg/kg)) was “passed through the blood-brain barrier, and bound to the Tg mouse intracerebral amyloid plaque”. Besides, the “binding to amyloid β protein in the brain section of an Alzheimer disease patient” value at amyloid β protein was “bound to the amyloid β protein”. The “Relative Activity in the absence of S9Mix” value in series [2] ((colonies per plate − colonies per negative control plate)/concentration (mg/plate), in the absence of S9Mix as printed in head) is “minus”. The “Relative Activity in the presence of S9Mix” value in series [2] ((colonies per plate − colonies per negative control plate)/concentration (mg/plate), in the presence of S9Mix as printed in head) was “minus^1)”. Further, in series [2], the “relative activity” value is listed as “minus”.

Regarding `OCC(CF)Oc1ccc2nc(/C=C/c3cnc(N4CCOCC4)s3)oc2c1` (centres unmarked) [THK-702, (E)-2-[2-(2-morpholinothiazol-5-yl)ethenyl]-6-[(1-fluoromethyl-2-hydroxy)ethoxy]-benzoxazole], in series [1] (Tg2576 mouse, 4 mg/kg intravenous, antibody 4G8), the “correspondence of binding site with anti-Aβ antibody-stained site of the same section” value is listed as “completely corresponded to the anti-Aβ antibody-stained site of the same section”. Moreover, at amyloid β protein, the “binding to amyloid β protein in the brain section of an Alzheimer disease patient” value is on record as “The white space arrow indicates amyloid β protein”. Moreover, the “Maximum Permissible Dose” value in series [3] is recorded as “≧10 mg/kg”. In addition, the “relative activity” value in series [2] is on record as “minus”.

With `CC(=C(C#N)C#N)c1ccc2cc(N(C)CCF)ccc2c1` [FDDNP], the “relative activity” value in series [4] is on record as “extremely high”.

In the case of `CN(C)c1ccc(-c2cn3cc(I)ccc3n2)cc1` [IMPY], the “relative activity” value in series [4] is “extremely high”.
